Experimental findings from EPA's ToxValDB 9.5 (doi:10.2903/j.efsa.2010.1598) are described below.

Converted amounts (≈) assume the structure as drawn.

For one data set, the system named is Colinus virginianus. Conditions: acute; oral; mortality.
Another data set relates to Daphnia magna. Conditions: chronic/long-term; duration: 21 days; reproduction.
The subject of a further data set is Bibionidae. Conditions: chronic/long-term; duration: 28 days.
The next data set deals with Oryctolagus sp. Conditions: developmental; development.
The subject of the next data set is Canidae. Conditions: acute; oral; Dog Other; mortality.
In the next data set the test system is Oncorhynchus mykiss. Conditions: chronic/long-term; duration: 21 days; growth.
The test system of the next data set is Apis mellifera. Conditions: acute; dermal; mortality.
In another data set the test system is Ictalurus punctatus. Conditions: acute; duration: 96 hours; mortality.

In general, NOAEL refers to the highest dose or exposure tested at which no adverse effect was seen. With `COC(=O)Nc1nc2ccccc2[nH]1` [Carbendazim], the LD50 in the data set with Colinus virginianus is more than 2250 mg/kg-day; in the data set with Canidae it was more than 5000 mg/kg-day; in the data set with Apis mellifera, more than 50 µg/piece; with Anas platyrhynchos (short-term, oral, feed, mortality), 615 mg/kg-day. Further, the NOEC is 0.0015 mg/L in the data set on Daphnia magna; 0.0133 mg/L in the data set with Bibionidae; 0.0032 mg/L in the data set with Oncorhynchus mykiss; 1 mg/kg in the data set on Tagia sp. (chronic/long-term, duration: 56 days). Moreover, the NOAEL in the data set on Oryctolagus sp. worked out at 10 mg/kg-day; in the data set on Rattus norvegicus (developmental, development) it was 10 mg/kg-day. For the same compound, the LC50 in the data set with Ictalurus punctatus was found to be 0.019 µg/mL (≈ 0.0994 µM); in the data set on Tagia sp. (acute, duration: 14 days, mortality), 5.4 mg/kg. The NOEL in the data set on Rattus norvegicus (chronic, organ weight) is 22.5 mg/kg-day; with Anas platyrhynchos (reproductive), 24.6 mg/kg-day.
